According to patent publication EP1585727B1, “INDOLES USEFUL IN THE TREATMENT OF ANDROGEN-RECEPTOR RELATED DISEASES” (priority 2002, dated 2004):

Target: T1, human androgen receptor (Homo sapiens, UniProt P10275)
T1 construct: expressed in transfected cells; host or cells: Chinese hamster ovary (CHO) cells, cell line CHO-AR-pMMTV-LUC 1G12-A5-CA
T1 sequence (P10275 1-920): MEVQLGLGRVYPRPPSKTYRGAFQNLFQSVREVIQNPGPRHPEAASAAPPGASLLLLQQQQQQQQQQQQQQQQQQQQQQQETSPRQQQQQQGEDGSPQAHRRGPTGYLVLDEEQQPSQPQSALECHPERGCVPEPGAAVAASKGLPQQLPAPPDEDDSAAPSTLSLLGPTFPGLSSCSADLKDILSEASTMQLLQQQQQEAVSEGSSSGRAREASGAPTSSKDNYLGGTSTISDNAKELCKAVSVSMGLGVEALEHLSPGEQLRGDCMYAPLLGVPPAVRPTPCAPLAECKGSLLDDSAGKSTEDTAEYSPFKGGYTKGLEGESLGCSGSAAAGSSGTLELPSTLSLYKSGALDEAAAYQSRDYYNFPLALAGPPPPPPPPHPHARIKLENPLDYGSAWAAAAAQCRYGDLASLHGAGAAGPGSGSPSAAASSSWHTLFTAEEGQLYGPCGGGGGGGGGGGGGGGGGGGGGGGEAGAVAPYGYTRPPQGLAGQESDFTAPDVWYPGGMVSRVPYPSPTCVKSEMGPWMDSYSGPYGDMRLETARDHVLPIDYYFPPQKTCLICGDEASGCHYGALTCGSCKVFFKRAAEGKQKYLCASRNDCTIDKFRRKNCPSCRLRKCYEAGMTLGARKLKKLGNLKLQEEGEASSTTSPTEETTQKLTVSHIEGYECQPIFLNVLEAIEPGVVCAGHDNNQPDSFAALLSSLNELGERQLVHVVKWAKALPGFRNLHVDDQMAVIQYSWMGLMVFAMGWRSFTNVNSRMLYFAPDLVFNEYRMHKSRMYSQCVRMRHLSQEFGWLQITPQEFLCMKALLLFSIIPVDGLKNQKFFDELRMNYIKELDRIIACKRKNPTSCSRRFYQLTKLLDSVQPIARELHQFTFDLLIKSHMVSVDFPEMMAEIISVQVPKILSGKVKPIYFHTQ
Test: Androgen receptor transactivation assay, androgenic activity in the presence of 0.1 µmol/l onapristone (CHO-AR-pMMTV-LUC cells; Table 5)
Type: cell-based
Settings: for ago efficacy: maximal intrinsic activity in the presence of 100 nM DHT set at 1.00; for ago potency: potency expressed as percentage of DHT activity
Experimental: The androgenic activity (EC50, potency, and efficacy) of the compounds in Table 5 was determined in an in vitro bioassay of Chinese hamster ovary (CHO) cells stably transfected with the human androgen receptor expression plasmid and a reporter plasmid in which the MMTV promotor is linked to the luciferase reporter gene. The cell line CHO-AR-pMMTV-LUC 1G12-A5-CA is described in Schoonen et al. (J. Steroid Biochem. Molec. Biol. […]; 74: 213-222). The androgen receptor activity of compounds was determined in the presence of 0.1 µmol/l onapristone. The maximal efficacy in the presence of 100 nmol/l DHT was set as 100%. The potencies are expressed as percentage of DHT activity. Table 5 Androgen receptor activity

Row | Structure (SMILES) | ago efficacy | ago potency
1 | CS(=O)(=O)Nc1ccc2c(Sc3ccccc3[N+](=O)[O-])cn(Cc3cc(F)cc(F)c3)c2c1 [Compound 106, N-[1-(3,5-Difluoro-benzyl)-3-(2-nitro-phenylsulfanyl)-1H-indol-6-yl]-methanesulfonamide] | ++ (≥0.80) | + (between 1% and 5%)
2 | NC(=O)c1ccc2c(Sc3ccccc3[N+](=O)[O-])cn(Cc3ccccn3)c2c1 [Compound 111, 3-(2-Nitro-phenylsulfanyl)-1-pyridin-2-ylmethyl-1H-indole-6-carboxylic acid amide] | ± (between 0.20 and 0.50) | ± (between 0.1 % and 1%)
3 | N#Cc1ccc2c(Sc3ccccc3[N+](=O)[O-])cn(Cc3cccnc3)c2c1 [Compound 121, 3-(2-Nitro-phenylsulfanyl)-1-pyridin-3-ylmethyl-1H-indole-6-carbonitrile] | ++ (≥0.80) | + (between 1% and 5%)
4 | N#Cc1ccc2c(Sc3ccccc3[N+](=O)[O-])cn(Cc3ccccn3)c2c1 [Compound 119, 3-(2-Nitro-phenylsulfanyl)-1-pyridin-2-ylmethyl-1H-indole-6-carbonitrile] | ++ (≥0.80) | ++ (>5%)
5 | CCC(=O)Nc1ccc2c(Sc3ccccc3[N+](=O)[O-])cn(Cc3cccnc3)c2c1 [Compound 105, N-[3-(2-Nitro-phenylsulfanyl)-pyridin-3-ylmethyl-1H-indol-6-yl]-propionamide] | ± (between 0.20 and 0.50) | + (between 1% and 5%)
6 | O=C(Nc1ccc2c(Sc3ccccc3[N+](=O)[O-])cn(Cc3cc(F)cc(F)c3)c2c1)C(F)F [Compound 98, N-[1-(3,5-Difluoro-benzyl)-3-(2-nitro-phenylsulfanyl)-1H-indol-6-yl]-2,2-difluoro-acetamide] | + (between 0.50 and 0.80) | ++ (>5%)
7 | N#Cc1cccc(Cn2cc(Sc3ccccc3[N+](=O)[O-])c3ccc(C#N)cc32)c1 [Compound 125, 1-(3-Cyano-benzyl)-3-(2-nitro-phenylsulfanyl)-1H-indole-6-carbonitrile] | ++ (≥0.80) | + (between 1% and 5%)
8 | CNC(=O)c1ccc2c(Sc3ccccc3[N+](=O)[O-])cn(Cc3ccccn3)c2c1 [Compound 110, 3-(2-Nitro-phenylsulfanyl)-1-pyridin-2-ylmethyl-1H-indole-6-carboxylic acid methylamide] | + (between 0.50 and 0.80) | + (between 1% and 5%)
9 | CN(C)C(=O)c1ccc2c(Sc3ccccc3[N+](=O)[O-])cn(Cc3ccccn3)c2c1 [Compound 109, 3-(2-Nitro-phenylsulfanyl)-1-pyridin-2-ylmethyl-1H-indole-6-carboxylic acid dimethylamide] | ++ (≥0.80) | + (between 1% and 5%)
10 | O=CNc1ccc2c(Sc3ccccc3[N+](=O)[O-])cn(Cc3cncnc3)c2c1 [Compound 118, N-[3-(2-Nitro-phenylsulfanyl)-1-pyrimidin-5-ylmethyl-1H-indol-6-yl]-formamide] | + (between 0.50 and 0.80) | ++ (>5%)
11 | O=C(CF)Nc1ccc2c(Sc3ccccc3[N+](=O)[O-])cn(Cc3ccccn3)c2c1 [Compound 100, 2-Fluoro-N-[3-(2-nitro-phenylsulfanyl)-1-pyridin-2-ylmethyl-1H-indol-6-yl]-acetamide] | ++ (≥0.80) | + (between 1% and 5%)
12 | CC(=O)Nc1ccc2c(Sc3ccccc3[N+](=O)[O-])cn(Cc3ccccn3)c2c1 [Compound 101, N-[3-(2-Nitro-phenylsulfanyl)-1-pyridin-2-ylmethyl-1H-indol-6-yl]-acetamide] | + (between 0.50 and 0.80) | + (between 1% and 5%)
13 | COc1ccc2c(Sc3ccccc3[N+](=O)[O-])cn(Cc3ccncn3)c2c1 [Compound 116, 6-Methoxy-3-(2-nitro-phenylsulfanyl)-1-pyrimidin-4-ylmethyl-1H-indole] | + (between 0.50 and 0.80) | + (between 1% and 5%)
